Reference: article PMC11345766, “Computational Design of Pore-Forming Peptides with Potent Antimicrobial and Anticancer Activities” (Journal of Medicinal Chemistry, 2024)

Columns and labels:
[1] = Calcein dye leakage assay from LUVs; assay type: biochemical; conditions: P:L 1:100; pH 7.4
Excerpt: To verify the pore-forming mechanism of action of the designed AMPs, we performed a calcein leakage assay. […] These lipid vesicles were used as simple mimics of bacterial membranes.[58] At the lowest tested peptide-to-lipid (P:L) ratio of 1:100 (mol/mol), three mutants (LP18, LP26, and LP40) caused >90% leakage, which was higher than the leakage caused by LP1 (87%). […] At the same concentration, LP23 caused leakage equivalent to that caused by LP1. Other mutants had lower leakage activity. At a higher P:L ratio of 1:50, all the abovementioned mutants caused 100% leakage, equivalent to that caused by LP1.
Pore-forming activity was tested using a dye leakage assay measuring the leakage of self-quenching fluorescent dye calcein from POPC:POPG (1:1 mol/mol) LUVs. DiD was mixed with lipids (1:500 mol/mol), and lipid film was created by evaporating chloroform, followed by 4 h of desiccation. Dried lipid film was dissolved in calcein buffer (35 mM calcein, 25 mM NaH2PO4·H2O and Na2HPO4·7H2O (3:7 mol/mol), 20 mM NaCl, and 1 mM EDTA). After 10 freeze–thaw cycles, the sample was extruded 50 times through a 100 nm pore size polycarbonate membrane filter. Free calcein in solution was removed using a HiTrap Desalting column. The concentrations of LUVs and peptides were adjusted to 0.02 and 0.1 mM, respectively, in PBS (25 mM NaH2PO4·H2O and Na2HPO4·7H2O (3:7 mol/mol), 100 mM NaCl, and 1 mM EDTA). The investigated P/L ratio was from 1:100 to 1:10 (mol/mol). Fluorescence intensity was measured using a HORIBA Scientific Jobin Yvon FluoroLog-3 Modular Spectrofluorometer (USA). Excitation and emission wavelengths were set to 495 and 520 nm, respectively. Triton X-100 10% caused 100% leakage used for normalization.

E. coli (TOP10) = assay: Broth microdilution antimicrobial susceptibility assay; assay type: cell-based, Escherichia coli; conditions: 24 h, MHB
Procedure, shortened: (§1)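 Bacteria were grown on MHA for 24 h, subcultured in MHB for 6 h at 37 °C and diluted to 10^6 CFU/mL. Compounds were serially diluted from 50 to 0.1 μM, inoculated and incubated for 24 h at 37 °C. MIC was the lowest concentration with no visible turbidity.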

S. carnosus (CCM 4838T) = assay: microbe, parasite or virus in culture; assay type: cell-based, Staphylococcus carnosus; conditions: CCM 4838, 24 h; read-out: Antimicrobial activity (MIC) S. carnosus (CCM 4838T)
Procedure, shortened: as §1

[2] = system: murine macrophages RAW 264.7; conditions: 24 h
Method: Cytotoxicity against human immortalized keratinocytes HaCaT, human alveolar basal epithelial A549 (derived from adenocarcinoma), and murine macrophages RAW 264.7 was tested using MTT [3-(4,5-dimethylthiazol-2-yl)-2,5-diphenyltetrazolium bromide] assay. Cells were cultured in Dulbecco’s modified Eagle’s medium (DMEM) containing 4 mM glutamine for HaCaT, or 2 mM glutamine for A549 and RAW 264.7 cells, supplemented with 10% heat-inactivated fetal bovine serum (FBS) and antibiotics (0.1 mg/mL penicillin and streptomycin). Nonessential amino acids (NEAA) and sodium pyruvate (1 mM) were added for macrophages. Cell lines were grown in 25 and 75 cm^2 flasks at 37 °C in a humidified atmosphere with 5% CO2. Cells were suspended in DMEM, containing glutamine, NEAA, and sodium pyruvate (as described above), supplemented with 2% FBS, plated in 96-well plates at 4 × 10^4 cells/well, and incubated at 37 °C in a 5% CO2 atmosphere. After overnight incubation, the medium was replaced with fresh DMEM supplemented with peptides at different concentrations: 2, 4, 8, 16, 32, 64, and 128 μM. Negative controls were cells without peptides. After 24 h of peptide treatment at 37 °C in a 5% CO2 atmosphere, medium was replaced with Hank’s buffer (136 mM NaCl, 0.34 mM Na2HPO4, 0.44 mM KH2PO4, 5.4 mM KCl, 4.1 mM NaHCO3, supplemented with 5.5 mM D-glucose) containing 0.5 mg/mL MTT. Mitochondrial dehydrogenases converted soluble yellow dye MTT to insoluble purple formazan. After 4 h of incubation, acidified isopropanol was added to dissolve formazan crystals and measured for OD570 using Tecan microplate reader Infinite M200 (Salzburg, Austria).

[3] = system: A. baumannii (ATCC 19606); assay: Neutropenic murine deep thigh infection model; assay type: in vivo, mouse; conditions: single intraperitoneal dose at 10 times the MIC; four days after treatment
Excerpt: Mice were euthanized 4 days postinfection (day 8).
Each experimental group comprised three mice.

[4] = system: cytoplasmic membranes of ESKAPEE pathogens; assay: Cytoplasmic membrane depolarization assay, DiSC3-(5); assay type: cell-based; conditions: both Gram-negative and Gram-positive bacteria; peptides at their MICs
Method: First, we investigated the ability of the peptides to depolarize the cytoplasmic membranes of ESKAPEE pathogens. […] Bacteria were incubated with 3,3′-dipropylthiadicarbocyanine iodide [DiSC3-(5)] dye, and the dye fluorescence was measured after peptide treatment. DiSC3-(5) is sensitive to transmembrane potential changes. It accumulates in the cytoplasmic membrane with quenched fluorescence, and when the membrane potential becomes unbalanced, the dye molecules translocate to the outside environment, resulting in increased fluorescence.[56] The three potent AMPs (LP1, LP18, and LP28) and the H-variant (LP40) depolarized the cytoplasmic membrane of both Gram-negative and Gram-positive bacteria at their MICs.
The cytoplasmic membrane depolarization activity of the peptides was determined by measuring the fluorescence of membrane-potential-sensitive dye DiSC3-(5). A. baumannii ATCC 19606, E. coli ATCC 11775, K. pneumoniae ATCC 13883, P. aeruginosa PAO1, S. aureus ATCC 12600, and E. faecium ATCC 700221 were grown to mid log phase (OD600 = 0.5) at 37 °C and then centrifuged (10,000 rpm at 4 °C for 10 min). Cells were washed twice with a buffer containing 20 mM glucose and 5 mM HEPES (pH 7.2) and diluted 1:10 (OD600 = 0.05) in a buffer with 0.1 M KCl, […], and 5 mM HEPES (pH 7.2). Fluorescence was recorded at the excitation and emission wavelengths of 622 and 670 nm, respectively. Bacterial solution (100 μL) was incubated for 15 min with 20 nM of DiSC3-(5) until fluorescence reached a plateau. Changes in transmembrane potential were monitored by observing the difference in fluorescence emission intensity after adding peptides (100 μL at their MICs) for 45 min. Assay was performed in triplicate.

E. faecium (ATCC 700221) = conditions: resistant to vancomycin
Excerpt: (§2) The effect of net charge was further investigated against six reference strains of ESKAPEE pathogens (Figure 3b).

[5] = system: A. baumannii (ATCC 19606); conditions: clinically relevant strain
Excerpt: as §2

E. coli AIC221 = conditions: Figure 3c
Excerpt: as §2

A. baumannii (Z13) = conditions: Z13, 18 h
[6] = single intraperitoneal dose at 10 times the MIC
Method: Neutropenic mice were infected intramuscularly (in the right thigh) with 10^6 cells per mL of Gram-negative A. baumannii (ATCC 19606).
(a) Schematic of the deep thigh infection model in which bacteria are injected intramuscularly at day 4 and peptides are administered intraperitoneally also at day 4 to assess their anti-infective activity. Mice were euthanized 4 days postinfection (day 8). Each group consisted of six mice (n = 6), and the bacterial loads used to infect the mice derived from three different inocula. […] Polymyxin B (0.006 mg/kg) and levofloxacin (0.014 mg/kg) were used as the reference antibiotics. Statistical significance was done using one-way ANOVA followed by Dunnett’s test. Violin plots represent the median, upper quartile, and lower quartile. (c) Mouse weight was monitored to exclude possible toxic effects of the peptides.
Six-week-old female CD-1 mice (obtained from Charles River; stock number 18679700-022) underwent neutropenia induction via two intraperitoneal doses of cyclophosphamide (150 mg kg^–^1) administered with a 72 h interval. One day later, the mice received an intramuscular injection containing A. baumannii ATCC 19606 (10^6 CFU mL^–1) in the right thigh. Bacteria were cultured in LB broth, washed twice with PBS (pH 7.4), and resuspended to the desired concentration. […] Polymyxin B (0.006 mg/kg) and levofloxacin (0.014 mg/kg) were used as the reference antibiotics. Prior to each injection, mice were anesthetized with isoflurane and their respiratory rate and pedal reflexes were monitored. Subsequently, we observed the infection establishment and euthanized the mice. The infected area was excised 4 days postinfection (i.e., 8 days after the beginning of the experiment), homogenized using a bead beater for 20 min (25 Hz), and 10-fold serially diluted for CFU quantification on MacConkey agar plates. Each experimental group comprised three mice. All experiments were conducted blindly, and no animals were excluded from the analysis. Statistical significance was assessed using one-way ANOVA followed by Dunnett’s test on log10-transformed data to mitigate outlier effects; p values are reported for each group, with all groups compared to the untreated control group.

Substance: H-KKKKKLKKILKKLFQFINQLDNQLQDIKKKKK-OH [LP28]
- Calcein leakage (%) from LUVs at P:L 1:100 (mol/mol) [1]: 74.0 ± 6.7%
- MIC (E. coli (TOP10)): 0.4 µM
- MIC (S. carnosus (CCM 4838T)): 0.4 µM
- IC50 [2]: 31 µM
- Reduction of bacterial load [3]: did not significantly reduce the bacterial load
- Depolarization of the cytoplasmic membrane [4]: depolarized
- MIC (E. faecium (ATCC 700221)): 0.8 µM
- MIC [5]: 0.8 µM
- MIC (E. coli AIC221): 0.8 µM
- MIC (A. baumannii (Z13)): 1 µM
- Change in mouse weight [6]: no significant change in mouse weight
